Experimental data: patent US20240301003A1 (NoNO Inc., priority 2021, published 2024)
Where two headings read alike, the source gives them in different places. Where a SMILES comes first, the peptide text is derived from it. Where no end group is shown, it is not given here.

How the values were obtained:
[1] = Plasmin sensitivity: peptides in PBS challenged with 10 ug/ml plasmin, HPLC; settings: isolated enzyme plasmin
NMDAR2B:PSD-95 complexes = molecular target: T1, NMDAR2B:PSD-95 complexes (Rattus norvegicus, UniProt P31016); assay: Dissociation of NMDAR2B:PSD-95 complexes after 3PVo, immunoprecipitation and Western blotting; type: in vivo, Sprague-Dawley rats; settings: 7.6 mg/kg 1 hr after stroke onset (3PVo), brains harvested 2 h after onset
T1 construct: Cortical stroke areas were collected for analysis; from tissue; host or cells: rat brain cortex (stroke area) after in vivo dosing
T1 sequence (P31016 whole entry, one chain of several): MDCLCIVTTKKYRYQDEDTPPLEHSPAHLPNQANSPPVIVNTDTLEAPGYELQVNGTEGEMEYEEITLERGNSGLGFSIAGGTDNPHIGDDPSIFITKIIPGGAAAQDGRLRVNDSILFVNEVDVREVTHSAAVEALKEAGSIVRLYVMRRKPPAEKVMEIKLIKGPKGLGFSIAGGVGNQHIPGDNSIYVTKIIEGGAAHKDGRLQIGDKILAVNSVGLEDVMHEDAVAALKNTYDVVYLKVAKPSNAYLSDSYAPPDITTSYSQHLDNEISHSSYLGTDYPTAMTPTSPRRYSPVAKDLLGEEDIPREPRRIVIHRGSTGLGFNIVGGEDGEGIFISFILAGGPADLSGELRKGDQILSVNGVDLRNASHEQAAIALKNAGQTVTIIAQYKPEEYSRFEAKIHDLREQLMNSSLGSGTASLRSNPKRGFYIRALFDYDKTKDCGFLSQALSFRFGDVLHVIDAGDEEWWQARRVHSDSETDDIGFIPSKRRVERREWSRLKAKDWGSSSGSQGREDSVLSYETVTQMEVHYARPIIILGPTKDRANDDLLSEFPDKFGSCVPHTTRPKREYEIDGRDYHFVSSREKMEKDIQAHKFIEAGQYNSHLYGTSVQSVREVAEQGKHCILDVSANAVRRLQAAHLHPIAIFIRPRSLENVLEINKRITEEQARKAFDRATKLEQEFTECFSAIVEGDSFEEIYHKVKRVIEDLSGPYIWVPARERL
Experimental: Sprague-Dawley rats were subject to three pial vessel model (3PVo). […] Brains were harvested 2 h after stroke onsets. Cortical stroke areas were collected for analysis. Immunoprecipitations were performed with anti-PSD-95 or anti-NMDAR2B. The amount of PSD-95 and NMDAR2B in samples was analyzed by Western blotting. Reduction in PSD-95-NMDAR2B complex formation was assessed by fold decrease of placebo versus treatment.

[2] = Plasma concentrations 15 minutes post subcutaneous dose (animals of the 3PVO model); type: in vivo, rat; settings: single subcutaneous administration, 2.5, 7.6, 25 mg/kg
Experimental: Unlike transient models of stroke in rats where much lower doses are required for neuroprotection, neuroprotection in 3 pial vessel occlusion models of stroke seems to require plasma concentrations of nerinetide at or above 2 ug/mL (or molar equivalent). […] Although the plasma levels continue to increase through about 3 hours then decrease, it is important to achieve rapid accumulation in the blood and brain for emergency indications like stroke. […] For pharmacokinetic sample analysis, calibration standard samples at concentrations of 0, 2.5, 5, 10, 15, 20 and 40 ug/mL of nerinetide were prepared by spiking 1 μL of the appropriate stock to 100 μL of plasma. […] Data is presented as mean±SD.

tMCAo = assay: Dose range of nerinetide in rat tMCAo model; type: in vivo, rats
Experimental: Nerinetide and lodoxamide was administered to rats intravenously as a bolus injection, 60 minutes after tMCAo. […] Bars in A and represent mean±SD, with all individual data points plotted. Asterisks in A indicate P<0.01 when compared to the vehicle group (one-way ANOVA post hoc Tukey's correction for multiple comparisons test) N=12-14 animals/group. […] Significant differences are indicated with an asterisk when compared to the vehicle group (Kruskal-Wallis analysis of variance on ranks with a post-hoc Dunn's correction for multiple comparisons test, *P<0.01). Vehicle: PBS alone. […] Doses up to at least 25 mg/kg were also effective with the highest efficacy being at about 15 mg/kg. The observed wide therapeutic range was attributable to nerinetide, and not to the mast cell degranulation inhibitor lodoxamide, which was present in all solutions to avoid potential hypotension due to histamine release.

[3] = Renal biomarkers or electrolyte imbalance after administration to rats (Table 7); type: in vivo; settings: rats, IV 7.6 mg/kg
Experimental: NoNO42 was tested for effect on various renal biomarkers or electrolyte imbalance in comparison with nerinetide after administration to rats as shown in Table 7.

tPA = tPA (Homo sapiens, UniProt P00750)
Chain of tPA (P00750 36-562): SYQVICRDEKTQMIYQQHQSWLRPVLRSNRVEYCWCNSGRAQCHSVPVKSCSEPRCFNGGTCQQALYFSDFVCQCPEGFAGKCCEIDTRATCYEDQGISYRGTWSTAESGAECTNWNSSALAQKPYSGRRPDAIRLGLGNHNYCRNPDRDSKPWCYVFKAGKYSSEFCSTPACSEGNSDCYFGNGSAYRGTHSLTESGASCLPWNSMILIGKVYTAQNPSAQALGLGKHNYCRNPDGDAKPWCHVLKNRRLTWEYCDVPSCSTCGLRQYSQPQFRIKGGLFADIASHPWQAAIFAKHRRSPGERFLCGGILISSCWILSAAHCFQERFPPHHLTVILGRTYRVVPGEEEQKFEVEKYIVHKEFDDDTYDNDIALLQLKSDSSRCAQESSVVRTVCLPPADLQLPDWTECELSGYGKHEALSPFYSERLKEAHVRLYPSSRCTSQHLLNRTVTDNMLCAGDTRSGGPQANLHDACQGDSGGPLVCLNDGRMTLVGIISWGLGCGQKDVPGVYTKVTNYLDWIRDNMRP

[4] = human studies, 2.6 mg/kg dose; cited from earlier work
[5] = humans; cited from earlier work
Weight gain of rats = settings: IV 7.6 mg/kg
plasmin [6] = molecular target: T2, plasmin (Homo sapiens, UniProt P00747); type: in vitro ADME; set-up: challenged with 10 ug/ml plasmin at 37 C
T2 sequence (P00747 581-810 limits assumed, species assumed): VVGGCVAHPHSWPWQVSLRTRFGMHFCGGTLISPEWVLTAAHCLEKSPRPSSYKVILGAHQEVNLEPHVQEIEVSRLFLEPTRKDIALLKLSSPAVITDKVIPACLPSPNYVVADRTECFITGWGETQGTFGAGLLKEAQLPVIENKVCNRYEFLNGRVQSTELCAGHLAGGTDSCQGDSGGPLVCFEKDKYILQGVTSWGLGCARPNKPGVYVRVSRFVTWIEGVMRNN
T2 sequence (P00747 97-580 partner limits assumed, species assumed): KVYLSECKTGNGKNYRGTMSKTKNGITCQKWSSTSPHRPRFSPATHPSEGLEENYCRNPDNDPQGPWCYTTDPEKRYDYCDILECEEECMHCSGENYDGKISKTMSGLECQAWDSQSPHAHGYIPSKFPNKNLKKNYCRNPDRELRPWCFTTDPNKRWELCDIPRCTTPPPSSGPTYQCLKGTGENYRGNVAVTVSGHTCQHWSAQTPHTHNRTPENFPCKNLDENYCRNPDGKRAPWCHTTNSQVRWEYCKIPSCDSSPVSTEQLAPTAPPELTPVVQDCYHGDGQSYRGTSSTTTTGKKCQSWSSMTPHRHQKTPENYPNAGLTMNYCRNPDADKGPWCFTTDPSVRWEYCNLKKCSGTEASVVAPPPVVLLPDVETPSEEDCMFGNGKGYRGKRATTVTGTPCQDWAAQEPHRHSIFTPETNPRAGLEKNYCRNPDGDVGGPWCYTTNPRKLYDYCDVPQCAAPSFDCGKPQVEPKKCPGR
Description: Plasmin is a serum protease induced by thrombolytic agents, such as tPA. Plasmin cleavage sites can occur on the C-terminal side of basic amino acids residues in a peptide formed of L-amino acids. NA-1 was digested with plasmin and the products analyzed by mass spectrometry. […] However, cleavage at the other two sites may occur to a lesser extent.

plasmin [7] = molecular target: T2, plasmin; type: in vitro ADME; set-up: challenged with 10 ug/ml plasmin at 37 C; remark: listed apart in the source
PSD95PDZ2 = PSD95PDZ2 (Homo sapiens, UniProt P78352); assay: Competitive ELISA with biotinylated-NA-1; settings: PSD-95 domain 2, FIG. 12
Chain of PSD95PDZ2 (P78352 160-246 limits assumed): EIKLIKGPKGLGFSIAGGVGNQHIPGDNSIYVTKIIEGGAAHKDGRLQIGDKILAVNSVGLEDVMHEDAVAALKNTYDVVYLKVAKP

[8] = Degradation in rat plasma in vitro, alone or with rt-PA or TNK
Description: (§1) Samples were collected at 6 different time points.
(§2) The experiment was repeated using TNK-tissue plasminogen activator in place of tPA.

[9] = Degradation in human plasma in vitro, alone or with rt-PA or TNK
Description: as §1, §2

[10] = test system: 3-pial vessel occlusion model of stroke
plasmin [11] = molecular target: T2, plasmin; assay: Plasmin sensitivity: peptides in PBS challenged with 10 ug/ml plasmin, HPLC
[12] = Pharmacokinetic analysis in rats (subcutaneous, pulmonary instillation, intravenous, intramuscular), HPLC
Experimental: Rats were anaesthetized in the supine position (Isoflurane 1.5--%) and allowed to breath spontaneously in 0.5 L/min 02. The left femoral artery was cannulated for blood sampling.
Test agents were prepared at the stablish concentration in a total volume of vehicle. Pulmonary instillation was performed by intubation with a 14G catheter connected to a 1 cc syringe and the test agent will be delivered through the catheter. Subcutaneous (SQ or SC) injection was injected into the area of the left flank, no more than 2 ml of total volume per site.
Each dose was evaluated in 3 rats for each administration strategy. […] For the first experiment, evaluating two different administration routes (SQ and PI), blood samples were collected at 8 different timepoints: Pre and at 7 additional times (1, 2.5, 5, 10, 15, 30, 60 min) post dose (250 ul/sample).
HPLC quantification: Plasma was separated from blood and stored at −−−80° C. until used. […] Standard curves for HPLC were generated from plasma samples spiked with known quantities of test agent.

[13] = IV bolus with lodoxamide 60 minutes after tMCAo

CC[C@H](C)[C@H](NC(=O)[C@H](CO)NC(=O)[C@H](CO)NC(=O)[C@H](CC(C)C)NC(=O)[C@H](CCCCN)NC(=O)[C@H](CCCNC(=N)N)NC(=O)[C@@H](CCCNC(=N)N)NC(=O)[C@H](CCCNC(=N)N)NC(=O)[C@H](CCC(N)=O)NC(=O)[C@@H](CCCNC(=N)N)NC(=O)[C@H](CCCNC(=N)N)NC(=O)[C@H](CCCCN)NC(=O)[C@@H](CCCCN)NC(=O)[C@H](CCCNC(=N)N)NC(=O)CNC(=O)[C@@H](N)Cc1ccc(O)cc1)C(=O)N[C@@H](CCC(=O)O)C(=O)N[C@@H](CO)C(=O)N[C@@H](CC(=O)O)C(=O)N[C@H](C(=O)O)C(C)C [NA-4.4.3] (HELM PEPTIDE1{Y.G.R.[dK].K.R.[dR].Q.R.[dR].R.K.L.S.S.I.E.S.D.V}$$$$V2.0; N-terminus and C-terminus assumed)
remaining at 0.5 h, 65 ug/ml [1]: > 85%

YGRKKRRQRRRKLSSIESDV [NA-1, reference compound]
dissociation of preformed NMDAR2B:PSD-95 complexes (NMDAR2B:PSD-95 complexes): able to dissociate preformed NMDAR2B:PSD-95 complexes
relation between treatment dose and Cmax [2]: dose proportionality between the treatment dose and the Cmax
dose of highest efficacy (tMCAo; [13]): about 15 mg/kg
doses up to which nerinetide was effective (tMCAo; [13]): at least 25 mg/kg
lowest dose producing significant reduction in infarct volume and improvement in neurological function (tMCAo; IV bolus with lodoxamide 60 minutes after tMCAo, 24 hours): 0.25 mg/kg
effective dosage range (reducing infarction size and neurologic deficit) (tMCAo; rat tMCAo model, at least this range): 0.25-25 mg/kg
Anion Gap ([3]; Day 4): 7.3 mmol/L
BUN ([3]; Day 4): 13.7 mg/dL
Cl ([3]; Day 4): 100.7 mmol/L
Creatinine ([3]; Day 4): 0.2 mg/dL
Glucose ([3]; Day 4): 178.0 mg/dL
Hct ([3]; Day 4): 39% ± % PCV
Hgb ([3]; Day 4): 13.4 g/dL
K+ ([3]; Day 4): 4.8 mmol/L
Na+ ([3]; Day 4): 137.3 mmol/L
iCa ([3]; Day 4): 1.43 mmol/L
tCO2 ([3]; Day 4): 35.0 mmol/L
Anion Gap ([3]; Day 14): 9.0 mmol/L
BUN ([3]; Day 14): 16.7 mg/dL
Cl ([3]; Day 14): 98.3 mmol/L
Creatinine ([3]; Day 14): 0.2 mg/dL
Glucose ([3]; Day 14): 253.3 mg/dL
Hct ([3]; Day 14): 38% ± % PCV
Hgb ([3]; Day 14): 13.0 g/dL
K+ ([3]; Day 14): 4.4 mmol/L
Na+ ([3]; Day 14): 136.7 mmol/L
iCa ([3]; Day 14): 1.45 mmol/L
tCO2 ([3]; Day 14): 34.3 mmol/L
Anion Gap ([3]; Pre): 7.3 mmol/L
BUN ([3]; Pre): 15.0 mg/dL
Cl ([3]; Pre): 98.0 mmol/L
Creatinine ([3]; Pre): 0.2 mg/dL
Glucose ([3]; Pre): 251.7 mg/dL
Hct ([3]; Pre): 38% ± % PCV
Hgb ([3]; Pre): 13.0 g/dL
K+ ([3]; Pre): 4.8 mmol/L
Na+ ([3]; Pre): 135.7 mmol/L
iCa ([3]; Pre): 1.46 mmol/L
tCO2 ([3]; Pre): 35.7 mmol/L
degradation, control treatment with tPA (tPA): no degradation
direct cleavage by tPA or TNK (tPA): Neither tPA nor TNK directly cleaves NA-1
effective plasma concentration [4]: ~10 µg/mL
doses at which drops in blood pressure have been observed [5]: above 3.75 mg/kg
Weight (Weight gain of rats; Day 4): 368.0 grams
Weight (Weight gain of rats; Day 14): 420.0 grams
Weight (Weight gain of rats; Pre): 360.3 grams
plasmin cleavage sites (plasmin [6]): cleavage at seven of nine potential sites
degradation on treatment with plasmin (plasmin [7]): rapidly degraded
EC50 (compared between peptides) (PSD95PDZ2): about the same within experimental error
degradation with coadministration of TNK ([8]; rat plasma (FIG. 8)): rapid degradation
NA-1 content decay with tPA versus NA-1 alone ([8]; rat plasma in vitro, NA-1 65 ug/mL, rt-PA 22.5-135 ug/mL): decayed much more rapidly when tPA was co-administered
time to decay to zero ([8]; rat plasma in vitro, treated with tPA): ≤ 15 min
degradation with coadministration of TNK ([9]; human plasma (FIG. 7)): rapid degradation
NA-1 content decay with tPA versus NA-1 alone ([9]; human plasma in vitro, NA-1 65 ug/mL, rt-PA 22.5-135 ug/mL): decayed much more rapidly when tPA was co-administered
infarct volume compared to placebo ([10]; 7.6 mg/kg subcutaneous bolus 60 minutes after onset of stroke): failed to achieved infarct volume reduction
infarct volume compared to placebo ([10]; 25 mg/kg subcutaneous bolus 60 minutes after onset of stroke): significant reduction in infarct volume
plasma concentration required for neuroprotection ([10]; 3 pial vessel occlusion models of stroke): ≥ 2 µg/mL
time to degradation (plasmin [11]; 10 ug/mL plasmin (FIG. 29)): ≤ 5 min
degradation by plasmin (plasmin [11]; about 65 ug/ml peptide in PBS, 10 ug/ml plasmin, 37 C, HPLC): completely degraded in about five minutes
AUC versus intravenous NA-1 ([12]; intramuscular): somewhat higher
CMax versus intravenous NA-1 ([12]; intramuscular): lower
half-life versus intravenous NA-1 ([12]; intramuscular): higher
AUC versus the same dose of intravenous NA-1 ([12]; subcutaneous): somewhat lower
CMax versus the same dose of intravenous NA-1 ([12]; subcutaneous): much lower
half-life versus intravenous NA-1 ([12]; subcutaneous): longer
